Experimental data published in patent US20050154036A1, “Methods of using zonisamide as an adjunctive therapy for partial seizures” (Eisai Co., Ltd., priority 2004, published 2005).

Legend:
[1] = cited from earlier work; for hyperammonemia as adverse effect: literature
[2] = human, in vivo
Source text: The pharmacovigilance data that were collected, reviewed and analyzed provided the following information in respect of the incidence of hyperammonemia. A total of 4 cases fulfilled the criteria of potential hyperammonemia cases. These cases were reviewed in detail for evaluation of possible safety signals. Two US cases were reported as either high ammonia levels or increased ammonia. Two Japanese cases were reported as hyperammonemia.
Of these, two (2) cases (both ZON1000262 and ZON1000346) had strong confounding factors and seem to be unrelated to zonisamide, but the possibility of zonisamide involvement cannot be completely excluded. The two cases of hyperammonemia originated from Japan and both involved adult patients. Both cases were serious and described as life-threatening. […]
Estimates of exposure, based upon retail and mail order prescriptions, indicate that the number of unique patients taking zonisamide capsules in the U.S. is about 37,276 (total prescriptions per year/average number of prescriptions per patient per year less a calculated percentage decrease based on estimated annual dropouts) in the time between approval in 2000 and December 2002. […] Similarly, the incidences of NMS estimated herein are unlikely to be higher than calculated. Based on the exposure data and number of hyperammonemia cases, the incidence of hyperammonemia is calculated to be about […].

sodium channels = settings: in vitro; cited from earlier work
T-type Ca2+ currents = settings: in vitro; cited from earlier work
[3] = system: GABA/benzodiazepine receptor ionophore complex; settings: in vitro; cited from earlier work
[4] = system: cultured mouse spinal cord neurons; settings: 10-30 μg/mL; cited from earlier work
rat hippocampal slices = settings: 10-30 μg/mL; cited from earlier work
[5] = system: dopaminergic and serotonergic neurotransmission; settings: in vivo microdialysis; cited from earlier work
[6] = cited from earlier work
carbonic anhydrase = settings: fraction of the inhibition by acetazolamide; cited from earlier work

| SMILES | hyperammonemia as adverse effect [1] | cases of hyperammonemia associated with the drug ([1]; since 1979, O'Neil et al. 2002) | cases fulfilling the criteria of potential hyperammonemia cases [2] [cases] | incidence of hyperammonemia [2] | effect on sodium channels (sodium channels) | effect on voltage-dependent, transient inward currents (T-type Ca2+ currents) (T-type Ca2+ currents) | binding to the GABA/benzodiazepine receptor ionophore complex [3] | changes in chloride flux [3] | postsynaptic GABA or glutamate responses [4] | synaptically-driven electrical activity [4] | neuronal or glial uptake of [3H]-GABA (rat hippocampal slices) | dopaminergic and serotonergic neurotransmission [5] | hepatic enzyme induction ([6]; in vivo) | time required to achieve steady-state levels ([6]; upon reaching a stable dose or following dosage adjustment) | carbonic anhydrase inhibition compared to acetazolamide (carbonic anhydrase) |
| --- | --- | --- | --- | --- | --- | --- | --- | --- | --- | --- | --- | --- | --- | --- | --- |
| NC(=O)N1c2ccccc2C=Cc2ccccc21 [carbamazepine] | known to cause hyperammonemia |  |  |  |  |  |  |  |  |  |  |  |  |  |  |
| CCCC(CCC)C(=O)O [valproate] | known to cause hyperammonemia | more than 30 cases |  |  |  |  |  |  |  |  |  |  |  |  |  |
| NS(=O)(=O)Cc1noc2ccccc12 [zonisamide, 1,2-benzisoxazole-3-methanesulfonamide] |  |  | 4 | about 1:1,222,453 | blocks sodium channels | reduces | binds to the GABA/benzodiazepine receptor ionophore complex in an allosteric fashion | does not produce changes in chloride flux | without affecting | suppresses | without affecting | facilitates | not known to be a hepatic enzyme inducer | up to two weeks | 1/50 |
